Assay results: PMC10285300, “Abscisic acid mimic-fluorine derivative 4 alleviates water deficit stress by regulating ABA-responsive genes, proline accumulation, CO2 assimilation, water use efficiency and better nutrient uptake in tomato plants” (Frontiers in Plant Science, 2023)

Columns and labels:
[1] = target: T1, Sl08g076960 (Solanum lycopersicum, UniProt A0A3Q7HTY9); test: PP2C inhibition assay (pNPP, […] nm), receptor-dependent inhibition of HAB1; type: biochemical; conditions: agonist; deltaN-HAB1 1 uM, receptor 2 uM, 25 mM pNPP, 10 mM MnCl2, Tris pH 8.0
T1 construct: gene LOC101268417; with Protein phosphatase 2C 16 (Arabidopsis thaliana)
T1 sequence (A0A3Q7HTY9 1-231): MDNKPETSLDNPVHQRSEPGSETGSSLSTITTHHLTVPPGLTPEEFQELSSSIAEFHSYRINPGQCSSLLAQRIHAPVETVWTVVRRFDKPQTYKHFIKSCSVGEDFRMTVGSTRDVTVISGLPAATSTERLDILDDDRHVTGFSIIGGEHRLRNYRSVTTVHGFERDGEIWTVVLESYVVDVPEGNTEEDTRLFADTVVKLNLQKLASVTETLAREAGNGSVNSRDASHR
T1 sequence (Q9CAJ0 172-511 partner limits assumed): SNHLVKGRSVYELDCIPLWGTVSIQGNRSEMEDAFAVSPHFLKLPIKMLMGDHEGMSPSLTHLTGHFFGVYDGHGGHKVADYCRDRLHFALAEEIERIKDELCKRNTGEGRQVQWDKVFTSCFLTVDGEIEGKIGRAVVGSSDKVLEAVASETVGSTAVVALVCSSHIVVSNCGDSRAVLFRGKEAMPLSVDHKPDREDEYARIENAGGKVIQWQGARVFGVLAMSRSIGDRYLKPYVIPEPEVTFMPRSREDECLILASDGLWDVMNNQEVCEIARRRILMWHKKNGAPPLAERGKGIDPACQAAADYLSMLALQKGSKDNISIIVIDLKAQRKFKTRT

[2] = target: T2, ΔN-HAB1 (Arabidopsis thaliana, UniProt Q9CAJ0); test: phosphatase activity, […] nm, […] min; type: biochemical; conditions: 25 mM pNPP, 10 mM MnCl2, Tris pH 8.0
T2 sequence (Q9CAJ0 172-511 limits assumed): T1 sequence (Q9CAJ0 172-511 partner limits assumed)

| SMILES | PP2C activity at 1 or 10 μM [1] | phosphatase activity, 405 nm, 20 min [2] |
| --- | --- | --- |
| CCCN1C(=O)CCc2cc(NS(=O)(=O)Cc3c(F)c(F)c(C)c(F)c3F)ccc21 [AMF4, N-(2-oxo-1-propyl-1,2,3,4-tetrahydroquinolin-6-yl)-1-(2,3,5,6-tetrafluoro-4-methylphenyl) methanesulfonamide] | both PYL1-like tomato receptors were activated by AMF4, resulting in the inhibition of the PP2C |  |
| O=[N+]([O-])c1ccc(OP(=O)(O)O)cc1 [p-nitrophenyl phosphate] |  | Phosphatase activity was measured using p-nitrophenyl phosphate (pNPP) as a substrate |
